# From patent US20260041093A1, “Ionic Derivatives Of Aromatic Carboxylic Acid For Use As Plant Stimulants, Method For Stimulating Plants And Use Of These Derivatives For Manufacturing Compositions For Stimulating Plants” (FUNDACJA UNIWERSYTETU IM. ADAMA MICKIEWICZA W POZNANIU, priority 2022, published 2026)
# Read-outs that look alike come from different tables or passages of the source.
# Experiments:
# [1] = test system: Tobacco Mosaic Virus (TMV); test: Protection of tobacco against TMV infection by watering twice (Example 24); assay type: in vivo, Nicotiana tabacum cv. Xanthi; settings: watered twice, 7 days after infection
# Protocol: Tobacco plants (Nicotiana tabacum) cv. […] 3,5-dichlorosalicylate of choline; 4. 3-chlorosalicylate of sodium, 5. 3-chlorosalicylate of potassium, 6. 3-chlorosalicylate of calcium, 7. 3-chlorosalicylate of magnesium at a concentration of 10 or 40 or 80 mg/L, at one-week intervals. The control was tobacco plants watered only with water. One week after the second treatment of the plants with the preparation, mechanical infection of the leaves with Tobacco Mosaic Virus (TMV) was carried out. This consisted of rubbing carborundum-sprinkled leaves several times with fingers soaked in a suspension of purified virus at a concentration of about 2 μg/ml. In order to evaluate the effectiveness of the tested substances in protection against biotic stresses, the TMV model and tobacco cv. Xanthi characterized by an interaction in the form of hypersensitivity phenomenon, i.e. the formation of easily quantifiable necrotic spots, were used.
# [2] = test system: winter rapeseed; settings: for increase in calcium uptake / increase in magnesium uptake / increase in nitrogen uptake / increase in phosphorus uptake / increase in potassium uptake / higher fat content / increase in fat content / seed yields higher compared to control / more biomass (dry weight) compared to control / more biomass (fresh weight) compared to control / more aboveground dry matter compared to control / more dry weight compared to control, on average / more fresh weight compared to control, on average / weight of one thousand seeds higher compared to control / more chlorophyll in the leaves (SPAD) compared to control: 80 mg/L, benzothiadiazole salt 25 mg/L; for chlorophyll content, differences between the tested objects: first measurement date; for more biomass (dry weight) compared to control / more biomass (fresh weight) compared to control: first sampling date, stimulant at BBCH 31-32, no fungicide yet; for more aboveground dry matter compared to control: last harvest date, fully ripe; for more dry weight compared to control, on average / more fresh weight compared to control, on average: second date, regardless of cultivation technology; for weight of one thousand seeds higher compared to control: tested combinations
# Excerpt: The experiment was established using the long strip method in four repetitions. The dimensions of the plots at establishment were 96 m^2 gross, while the harvestable area was 23.25 m^2 net.
# In the experiment, uniform NPK fertilization was applied, using both bulk and liquid fertilizers.
# The following facilities were included in the experiment: • 1. control, no stimulant application, standard fungicide protection • 2. stimulant applied at stage 31-32 according to the BBCH development scale, standard fungicide protection • 3. stimulant applied at stage 53-55 according to the BBCH development scale, no fungicide protection
# [3] = test system: tobacco mosaic virus (TMV); test: Direct effect on TMV infectivity: virus incubated with substance, then Xanthi tobacco leaves infected (Example 21); assay type: in vivo; settings: TMV about 3 μg/ml mixed 1:1 with substance 80 mg/L, 30 min; 5 days after infection; control 100
# Protocol: Sodium 3-chlorosalicylate; 5. Potassium 3-chlorosalicylate; 6. Calcium 3-chlorosalicylate; 7. Magnesium 3-chlorosalicylate (concentration 80 mg/L), in a 1:1 ratio and incubated for 30 min at room temperature. The control variant consisted of TMV incubated in water. All virus suspensions were used to mechanically infect Xanthi tobacco leaves, whose reaction to infection is manifested in easily quantifiable local necrotic spots (hypersensitivity, local infection).
# After 5 days, the area of leaf covered by necrotic spots compared to total leaf area was calculated for plants of all variants of treatment.
# [4] = test system: powdery mildew fungus; test: Direct effect on fungal infectivity (Example 23); assay type: in vivo; settings: tobacco plant, 5 days after infection with solution of fungus and test substance; control 100
# Protocol: Proceeding as in Example 21, the test was performed on the powdery mildew fungus, which was then incubated on the medium.
# [5] = test system: Brome Mosaic Virus (BMV); test: Protection of barley against Brome Mosaic Virus infection by watering (Examples 28 and 29); assay type: in vivo; settings: 2 weeks after infection
# [6] = test system: broccoli; test: Broccoli seedlings in pots sprayed: height, fresh and dry weight (Example 4); assay type: in vivo
# Protocol: Broccoli seedling were planted into pots with peat substrate (P9 pots having 0.5 l). Pots were placed in greenhouse and cultivated for a 1 month. […] 2-fluoroethyl(trimethyl)ammonium benzo[1,2,3]thiadiazole-7-carboxylate; 3. 2-bromoethyl(trimethyl)ammonium benzo[1,2,3]thiadiazole-7-carboxylate; 4. 2-chloroethyl(trimethyl)ammonium benzo[1,2,3]thiadiazole-7-carboxylate; 5. 2-iodoethyl(trimethyl)ammonium benzo[1,2,3]thiadiazole-7-carboxylate used at a concentration of 30 mg/L and 6. 2-hydroxyethyl(trimethyl)ammonium 3-chlorosalicylate (tested also at a concentration of 50 mg/L); 7. 3-chlorosalicylate 2-fluoroethyl(trimethyl)ammonium; 8. 3-chlorosalicylate 2-bromoethyl(trimethyl)ammonium; 9. 3-chlorosalicylate 2-chloroethyl(trimethyl)ammonium; 10. 3-chlorosalicylate 2-iodoethyl(trimethyl)ammonium used at a concentration of 80 mg/L. Plants were sprayed with tested substances three times at 10-day intervals. Plants treated with water only were the untreated control. During the course of the experiment, the height of the plants was measured, and at the end the fresh and dry weight of the aboveground part was evaluated. The experiment was conducted in 4 repetitions with 5 plants in each (a total of 20 plants per each combination).
# [7] = test system: Pseudomonas syringae pv. Tomato (Pst); test: Protection of tomato against Pseudomonas syringae pv. Tomato by watering (Example 32); assay type: in vivo; settings: 80 mg/L; watered twice; Pst 10^5; 2 weeks after infection
# Protocol: Tomato plants, at the stage of the first pair of developed true leaves, were watered twice with a solution of substance 1-6 at a concentration of 80 mg/L, at a weekly interval. The control was tomato plants watered only with water. One week after the second treatment, a suspension of Pst bacteria at a concentration of 10^5 was spot-injected into the leaves using an insulin syringe (without a needle). The suspension was prepared from a two-day culture of Pst on solid medium. Protection against biotic stress was evaluated by the proliferation of bacteria in the leaves at the insertion site and the formation of a necrotic spot, compared to the control.
# [8] = BBCH 32, standard fungicide protection
# [9] = BBCH 55, standard fungicide protection
# [10] = both fungicide and stimulant treatments
# [11] = with a fungicide, printed 'first date' (of second and third measurement dates)
# [12] = with a fungicide, printed 'second date'
# [13] = without a fungicide, printed 'first date'
# [14] = without a fungicide, printed 'second date'
# [15] = without fungicide protection, stimulant at BBCH 31-32
# [16] = 3-chlorosalicylate 80 mg/L, benzothiadiazole salt 30 mg/L
compound,measurement,setting,value
C[N+](C)(C)CCO.O=C([O-])c1cccc(Cl)c1O [choline 3-chlorosalicylate],% reduction in necrotic spots compared to control,[1]; 10 mg/L,80%
same,% reduction in necrotic spots compared to control,[1]; 40 mg/L,100%
same,% reduction in necrotic spots compared to control,[1]; 80 mg/L,100%
same,increase in calcium uptake,[2]; [8],5%
same,increase in magnesium uptake,[2]; [8],4%
same,increase in nitrogen uptake,[2]; [8],6%
same,increase in phosphorus uptake,[2]; [8],7%
same,increase in potassium uptake,[2]; [8],6%
same,increase in calcium uptake,"[2]; BBCH 32, stimulant only",8%
same,increase in magnesium uptake,"[2]; BBCH 32, stimulant only",12%
same,increase in nitrogen uptake,"[2]; BBCH 32, stimulant only",9%
same,increase in phosphorus uptake,"[2]; BBCH 32, stimulant only",7%
same,increase in potassium uptake,"[2]; BBCH 32, stimulant only",8%
same,higher fat content,"[2]; BBCH 32, with fungicide",6%
same,higher fat content,"[2]; BBCH 32, without fungicide",8%
same,increase in calcium uptake,[2]; [9],9%
same,increase in fat content,[2]; [9],6%
same,increase in magnesium uptake,[2]; [9],10%
same,increase in nitrogen uptake,[2]; [9],11%
same,increase in phosphorus uptake,[2]; [9],10%
same,increase in potassium uptake,[2]; [9],8%
same,increase in calcium uptake,"[2]; BBCH 55, without fungicide",10%
same,increase in fat content,"[2]; BBCH 55, without fungicide",5%
same,increase in magnesium uptake,"[2]; BBCH 55, without fungicide",12%
same,increase in nitrogen uptake,"[2]; BBCH 55, without fungicide",11%
same,increase in phosphorus uptake,"[2]; BBCH 55, without fungicide",10%
same,increase in potassium uptake,"[2]; BBCH 55, without fungicide",7%
same,seed yields higher compared to control,[2]; [10],20%
same,"chlorophyll content, differences between the tested objects",[2],no differences were observed
same,more biomass (dry weight) compared to control,[2],34%
same,more biomass (fresh weight) compared to control,[2],36%
same,more aboveground dry matter compared to control,[2]; only the stimulant,42%
same,more aboveground dry matter compared to control,[2]; with fungicide protection,38%
same,"more dry weight compared to control, on average",[2],32%
same,"more fresh weight compared to control, on average",[2],28%
same,weight of one thousand seeds higher compared to control,[2],10%
same,more chlorophyll in the leaves (SPAD) compared to control,[2]; [11],5%
same,more chlorophyll in the leaves (SPAD) compared to control,[2]; [12],7%
same,more chlorophyll in the leaves (SPAD) compared to control,[2]; [13],6%
same,more chlorophyll in the leaves (SPAD) compared to control,[2]; [14],5%
same,seed yields higher compared to control,[2]; [15],10%
same,% of necrotic spots,[3],98%
same,% of necrotic spots,[4],100%
same,% reduction in necrotic spots compared to control,"[5]; 10 mg/L, watered",69%
same,% reduction in necrotic spots compared to control,"[5]; 80 mg/L, watered twice",100%
same,% reduction in necrotic spots compared to control,"[5]; 80 mg/L, watered twice, listed as 2-hydroxyethyl(trimethyl)ammonium 3-chlorosalicylate",98%
same,Average dry mass,[6]; 50 mg/L,0.6 b g
same,Average fresh mass,[6]; 50 mg/L,6.8 b g
same,"Average plant height, initial height, before first treatment",[6]; 50 mg/L,37.6 b mm
same,"Average plant height, second treatment",[6]; 50 mg/L,146.4 a mm
same,"Average plant height, third treatment",[6]; 50 mg/L,178.5 a mm
same,Plant height increase,[6]; 50 mg/L,140.9 a mm
same,Average dry mass,[6]; [16],0.6 b g
same,Average fresh mass,[6]; [16],6.7 b g
same,"Average plant height, initial height, before first treatment",[6]; [16],36.5 a mm
same,"Average plant height, second treatment",[6]; [16],146.0 a mm
same,"Average plant height, third treatment",[6]; [16],179.5 a mm
same,Plant height increase,[6]; [16],143.0 a mm
same,% reduction in necrotic spots compared to control,[7],92%
C[N+](C)(C)CCO.O=C([O-])c1cccc2nnsc12,increase in calcium uptake,[2]; [8],5%
same,increase in magnesium uptake,[2]; [8],5%
same,increase in nitrogen uptake,[2]; [8],5%
same,increase in phosphorus uptake,[2]; [8],5%
same,increase in potassium uptake,[2]; [8],6%
same,increase in calcium uptake,"[2]; BBCH 32, stimulant only",9%
same,increase in magnesium uptake,"[2]; BBCH 32, stimulant only",11%
same,increase in nitrogen uptake,"[2]; BBCH 32, stimulant only",8%
same,increase in phosphorus uptake,"[2]; BBCH 32, stimulant only",9%
same,increase in potassium uptake,"[2]; BBCH 32, stimulant only",7%
same,higher fat content,"[2]; BBCH 32, with fungicide",6%
same,higher fat content,"[2]; BBCH 32, without fungicide",8%
same,increase in calcium uptake,[2]; [9],10%
same,increase in fat content,[2]; [9],6%
same,increase in magnesium uptake,[2]; [9],9%
same,increase in nitrogen uptake,[2]; [9],9%
same,increase in phosphorus uptake,[2]; [9],11%
same,increase in potassium uptake,[2]; [9],8%
same,increase in calcium uptake,"[2]; BBCH 55, without fungicide",9%
same,increase in fat content,"[2]; BBCH 55, without fungicide",increase
same,increase in magnesium uptake,"[2]; BBCH 55, without fungicide",13%
same,increase in nitrogen uptake,"[2]; BBCH 55, without fungicide",12%
same,increase in phosphorus uptake,"[2]; BBCH 55, without fungicide",9%
same,increase in potassium uptake,"[2]; BBCH 55, without fungicide",8%
same,seed yields higher compared to control,[2]; [10],12%
same,"chlorophyll content, differences between the tested objects",[2],no differences were observed
same,more biomass (dry weight) compared to control,[2],29%
same,more biomass (fresh weight) compared to control,[2],28%
same,more aboveground dry matter compared to control,[2]; only the stimulant,32%
same,more aboveground dry matter compared to control,[2]; with fungicide protection,38%
same,"more dry weight compared to control, on average",[2],26%
same,"more fresh weight compared to control, on average",[2],24%
same,weight of one thousand seeds higher compared to control,[2],12%
same,more chlorophyll in the leaves (SPAD) compared to control,[2]; [11],6%
same,more chlorophyll in the leaves (SPAD) compared to control,[2]; [12],8%
same,more chlorophyll in the leaves (SPAD) compared to control,[2]; [13],8%
same,more chlorophyll in the leaves (SPAD) compared to control,[2]; [14],12%
same,seed yields higher compared to control,[2]; [15],9%
same,Average dry mass,[6]; [16],0.7 b g
same,Average fresh mass,[6]; [16],7.8 c g
same,"Average plant height, initial height, before first treatment",[6]; [16],39.2 c mm
same,"Average plant height, second treatment",[6]; [16],187.2 b mm
same,"Average plant height, third treatment",[6]; [16],215.7 b mm
same,Plant height increase,[6]; [16],176.5 b mm
same,number of leaves developed,"[6]; FIG. 2, treated once, 5 mg/L, control plant developed 3 leaves",4
